Patent US8735406B2, “8-oxodihydropurine derivative” (Dainippon Sumitomo Pharma Co., Ltd., priority 2009, dated 2014)
Counter-ions that a name gives are not always drawn.

Biological target: T1, FAAH (Rattus norvegicus, UniProt P97612)
T1 construct: Preparation of Rat Brain Membranes Preparations (FAAH Enzyme Solution); from tissue; host or cells: rat cerebrum (brain membrane preparation)
T1 sequence (P97612 1-579): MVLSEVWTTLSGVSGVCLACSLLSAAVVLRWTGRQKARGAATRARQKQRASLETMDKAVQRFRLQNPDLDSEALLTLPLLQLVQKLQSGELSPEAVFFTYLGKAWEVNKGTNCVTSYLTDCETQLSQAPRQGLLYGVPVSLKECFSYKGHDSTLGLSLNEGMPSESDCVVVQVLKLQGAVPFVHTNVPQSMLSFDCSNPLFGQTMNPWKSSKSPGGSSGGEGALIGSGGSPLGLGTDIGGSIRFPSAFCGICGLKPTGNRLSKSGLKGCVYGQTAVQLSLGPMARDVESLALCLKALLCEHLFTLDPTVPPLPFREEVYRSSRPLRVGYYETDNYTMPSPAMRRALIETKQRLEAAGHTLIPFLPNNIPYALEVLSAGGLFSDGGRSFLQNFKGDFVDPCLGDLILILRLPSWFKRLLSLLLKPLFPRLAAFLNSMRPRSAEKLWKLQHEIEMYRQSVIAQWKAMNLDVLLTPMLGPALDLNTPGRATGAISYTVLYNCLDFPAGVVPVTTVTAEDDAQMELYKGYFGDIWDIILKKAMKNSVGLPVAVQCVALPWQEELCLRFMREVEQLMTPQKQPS
Experiment: Determination of FAAH inhibitory activity in rat (rat brain membrane preparations, [3H]-anandamide hydrolysis)
Type: biochemical
Conditions: rat brain membrane preparations; for inhibition at 0.1 µM: at 100 nM, read-out: FAAH Inhibition Inhibition Rate at 100 nM; for IC50: read-out: FAAH Inhibition IC50
In short: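 Compounds tested from 0.1 nM to 1 μM to derive IC50 against FAAH hydrolysis in rat brain membrane preparations (100 μg/mL). A 10-min 37 °C preincubation was followed by 10 min with [3H]-anandamide (2 nM) mixed with 2 μM unlabelled anandamide. Radioactive ethanolamine was extracted into the water/methanol layer and counted.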

| inhibition at 0.1 µM [%] | IC50 [nM] | Compound |
| --- | --- | --- |
| 96 | 9 | Cn1c(=O)n(C(=O)N2CCC2)c2nc(CCc3cccc(OCC(F)(F)F)c3)ncc21 [Example 612, 9-(Azetidin-1-ylcarbonyl)-7-methyl-2-{2-[3-(2,2,2-trifluoroethoxy)phenyl]ethyl}-7,9-dihydro-8H-purine-8-one] |
| 95 | 12 | Cn1c(=O)n(C(=O)N2CCC2)c2nc(CCc3ccc(OCC(F)(F)F)cc3)ncc21 [Example 613, 9-(Azetidin-1-ylcarbonyl)-7-methyl-2-{2-[4-(2,2,2-trifluoroethoxy)phenyl]ethyl}-7,9-dihydro-8H-purine-8-one] |
| 81 | 28 | CN(C)C(=O)n1c(=O)n(C)c2cnc(CCCc3ccccc3)nc21 [Example 614] |
| 96 | 10 | CN(C)C(=O)n1c(=O)n(C)c2cnc(CCC3CCCCC3)nc21 [Example 615] |
| 99 | 10 | CN(C)C(=O)n1c(=O)n(C)c2cnc(CCCC3CCCCC3)nc21 [Example 616] |
| 93 | 6 | CN(C)C(=O)n1c(=O)n(C)c2cnc(CCCC3CCCC3)nc21 [Example 617] |
| 101 | 10 | CN(C)C(=O)n1c(=O)n(C)c2cnc(CCCCc3ccccc3)nc21 [Example 618] |
| 103 | 9 | Cn1c(=O)n(C(=O)N2CCC2)c2nc(CCCC3CCCCC3)ncc21 [Example 619] |
| 87 | 88 | Cn1c(=O)n(C(=O)N2CCC2)c2nc(CCc3ccc4c(c3)CCO4)ncc21 [Example 620] |
| 48 | 105 | CCCc1ncc2c(n1)n(C)c(=O)n2C(=O)N1CC(Oc2ccccc2CC)C1 [Example 629] |
| 102 | 10 | Cn1c(=O)n(C(=O)N2CC(c3ccc(F)cc3)C2)c2nc(C3CC3)ncc21 [Example 630] |
| 77 | 36 | Cn1c(=O)n(C(=O)N2CC(c3ccccc3)C2)c2nc(C3CC3)ncc21 [Example 631] |
| 84 | 31 | Cn1c(=O)n(C(=O)N2CC(c3cccc(F)c3)C2)c2nc(C3CC3)ncc21 [Example 632] |
| 82 | 19 | CCCc1ncc2c(n1)n(C(=O)N1CC(c3cccc(F)c3)C1)c(=O)n2C [Example 633] |
| 95 | 98 | CCc1ncc2c(n1)n(C(=O)N1CC(c3ccccc3)C1)c(=O)n2C [Example 634] |
| 88 | 44 | CCc1ncc2c(n1)n(C(=O)N1CC(c3cccc(F)c3)C1)c(=O)n2C [Example 635] |
| 94 | 78 | CCCc1ncc2c(n1)n(C(=O)N1CC(c3ccc(F)cc3)C1)c(=O)n2C [Example 636] |
| 102 | 7 | CCCc1ncc2c(n1)n(C(=O)N1CC(c3ccccc3)C1)c(=O)n2C [Example 637] |
| 95 | 12 | CN(C)C(=O)n1c(=O)n(C)c2cnc(CCOc3ccc(C(F)(F)F)cc3)nc21 [Example 638, N,N,7-trimethyl-8-oxo-2-{2-[4-(trifluoromethyl)phenoxy]ethyl}-7,8-dihydro-9H-purine-9-carboxamide hydrochloric acid salt] |
| 105 | 8 | CN(C)C(=O)n1c(=O)n(C)c2cnc(CCOc3cccc(Cl)c3)nc21 [Example 641, 2-[2-(3-Chlorophenoxy)ethyl]-N,N,7-trimethyl-8-oxo-7,8-dihydro-9H-purine-9-carboxamide] |
| 97 | 16 | CCn1c(=O)n(C(=O)N(C)C)c2nc(CCc3ccccc3F)ncc21 [Example 643] |
| 95 | 10 | CCn1c(=O)n(C(=O)N(C)C)c2nc(CCc3cccc(F)c3)ncc21 [Example 644, 7-Ethyl-2-[2-(3-fluorophenyl)ethyl]-N,N-dimethyl-8-oxo-7,8-dihydro-9H-purine-9-carboxamide] |
